# Reference: US8895579B2, “Heterotricyclic AMPA receptor antagonists for treatment of epilepsy, pain, and other neurological disorders and diseases” (Northwestern University, priority 2010, dated 2014)
# Several values for one entry are separate records, joined by “and”; a condition that tells them apart may be missing. Equal values may be shown once. Entries after “also recorded” stand apart in the source; their conditions may differ.
# How the values were obtained:
# [1] = target: T1, homomeric GluA3 AMPA receptor (Rattus norvegicus, UniProt P19492); assay: Whole-cell patch clamp of recombinant GluA3 receptors in HEK293-T/17 cells; format: cell-based; settings: 30 μM; 10 mM glutamate
# T1 construct: expressed in transfected cells; host or cells: HEK293-T/17 (CRL-11268)
# T1 sequence (P19492 23-888 isoform P19492-2 limits assumed): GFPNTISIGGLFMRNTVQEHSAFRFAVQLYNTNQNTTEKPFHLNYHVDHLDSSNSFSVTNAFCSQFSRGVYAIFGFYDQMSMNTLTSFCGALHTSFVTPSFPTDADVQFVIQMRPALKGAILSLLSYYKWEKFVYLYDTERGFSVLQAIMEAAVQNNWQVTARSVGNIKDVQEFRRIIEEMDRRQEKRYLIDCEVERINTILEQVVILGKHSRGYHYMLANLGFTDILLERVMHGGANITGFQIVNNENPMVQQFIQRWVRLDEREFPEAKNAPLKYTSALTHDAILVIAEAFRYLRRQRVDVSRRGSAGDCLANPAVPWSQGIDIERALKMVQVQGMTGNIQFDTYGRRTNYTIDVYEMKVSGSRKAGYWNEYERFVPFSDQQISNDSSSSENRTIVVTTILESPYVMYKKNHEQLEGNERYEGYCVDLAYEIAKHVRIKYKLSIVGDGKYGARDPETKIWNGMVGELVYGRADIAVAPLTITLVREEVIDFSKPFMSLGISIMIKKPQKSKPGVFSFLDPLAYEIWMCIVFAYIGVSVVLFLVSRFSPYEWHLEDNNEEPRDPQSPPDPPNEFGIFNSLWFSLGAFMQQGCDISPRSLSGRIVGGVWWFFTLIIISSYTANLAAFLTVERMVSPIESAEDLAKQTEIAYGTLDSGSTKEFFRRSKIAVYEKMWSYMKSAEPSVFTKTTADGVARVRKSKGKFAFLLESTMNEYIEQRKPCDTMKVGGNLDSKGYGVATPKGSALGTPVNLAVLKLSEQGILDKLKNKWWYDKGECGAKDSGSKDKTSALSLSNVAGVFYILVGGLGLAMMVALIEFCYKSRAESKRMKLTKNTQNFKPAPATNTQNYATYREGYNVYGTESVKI
# Experimental: Cell Culture and Transfection. Human embryonic kidney cells expressing T-antigen, clone 17 (HEK293-T/17) (CRL-11268) were cultured at 37° C. with 5% CO2 in DMEM, including 100 μg/mL penicillin, 100 μg/mL streptomycin, and 10% heat-inactivated fetal bovine serum. Cells were split twice per week. For transfection, HEK293-T/17 cells were plated at 3×10^4 cells/cm^2 for pharmacology experiments and 5×10^3 cells/cm^2 for physiology experiments in fresh medium 24 h prior to transfection. Cells were transfected with AMPA or KA receptor plasmid cDNAs using Mirus Trans-IT transfection reagent (Minus Bio Corporation, Madison, Wis.) at a ratio of 1 μg cDNA: 3 μL Trans-1T reagent and maintained in transfection medium overnight followed by a media change the next day. Transfected cells were maintained in this medium until the experiment was conducted (48-72 h total post transfection).
# Electrophysiology. For analysis of recombinant receptors, HEK293-T/17 cells were co-transfected with 0.2 μg of iGluR cDNA and 0.05 μg of eGFP. For heterologous GluA1/GluA2 receptors, the GluA1:GluA2 cDNA ratio was 1:6. Two to three days post-transfection, eGFP-expressing cells were lifted from the cover slip and voltage clamped in whole cell mode. […]
# [2] = target: T2, GluK2a (Rattus norvegicus, UniProt P42260); assay: [3H]-KA radioligand binding, membranes of HEK293-T/17 cells expressing GluK2a; settings: 10 nM [3H]-KA, 1 h at 4° C., read-out: [3H]KA bound as percent of total (specific) binding in absence of competing ligand
# T2 construct: myc; expressed in transfected cells; host or cells: HEK293-T/17 (CRL-11268)
# T2 sequence (P42260 32-908): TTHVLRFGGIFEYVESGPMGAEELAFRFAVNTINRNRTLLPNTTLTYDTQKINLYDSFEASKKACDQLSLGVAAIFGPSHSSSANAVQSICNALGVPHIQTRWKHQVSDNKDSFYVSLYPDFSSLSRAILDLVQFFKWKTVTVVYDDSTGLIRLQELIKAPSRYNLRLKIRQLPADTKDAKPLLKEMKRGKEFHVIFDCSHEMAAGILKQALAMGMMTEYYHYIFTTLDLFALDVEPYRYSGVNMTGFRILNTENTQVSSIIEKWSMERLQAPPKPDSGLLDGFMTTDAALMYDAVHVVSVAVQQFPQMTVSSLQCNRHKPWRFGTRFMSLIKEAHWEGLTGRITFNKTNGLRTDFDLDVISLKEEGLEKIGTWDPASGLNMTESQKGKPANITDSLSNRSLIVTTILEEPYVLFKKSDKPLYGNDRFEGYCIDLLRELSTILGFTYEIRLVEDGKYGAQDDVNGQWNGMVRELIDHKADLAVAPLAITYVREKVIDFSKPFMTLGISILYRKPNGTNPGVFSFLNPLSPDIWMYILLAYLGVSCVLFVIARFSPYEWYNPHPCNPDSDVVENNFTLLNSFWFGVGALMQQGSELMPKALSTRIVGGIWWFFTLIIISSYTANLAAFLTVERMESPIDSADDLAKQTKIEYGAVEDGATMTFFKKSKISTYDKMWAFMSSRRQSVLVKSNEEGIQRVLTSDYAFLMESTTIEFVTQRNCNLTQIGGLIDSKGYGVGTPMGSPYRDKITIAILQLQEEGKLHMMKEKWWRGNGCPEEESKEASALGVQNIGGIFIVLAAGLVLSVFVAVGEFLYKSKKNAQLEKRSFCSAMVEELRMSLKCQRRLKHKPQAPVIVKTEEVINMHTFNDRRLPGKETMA
# Experimental: (§1) Radioligand binding. HEK293-T/17 cells were transfected with 5 μg of iGluR cDNA in 100 mm^2 culture dishes. Two days post transfection, the plates were washed twice with ice-cold Dulbecco's phosphate-buffered saline (DPBS) and then incubated with 50 mM Tris (pH 7.4) and 1 mM EDTA for three minutes on ice. Cells were collected and centrifuged for five minutes at 800 g at room temperature. The cell pellet was homogenized in 50 mM Tris (pH 7.4) containing 320 mM sucrose (homogenization buffer, HB) on ice using a glass dounce homogenizer and centrifuged at 4° C. for 10 minutes at 800 g. The supernatant, containing the membrane fragments, was saved and the remaining pellet containing nuclei and unbroken cells was resuspended in HB. This homogenization process was repeated two more times and after collection of the final resulting supernatant, the remaining pellet was discarded. The collected supernatants were centrifuged at 4° C. for 20 minutes at 20000 g and the resulting supernatant was discarded leaving a membrane-containing pellet. […] Non-specific binding was determined as the amount of radioligand bound in the presence of a saturating concentration of glutamate (1 mM). Total binding was determined as the amount of radioligand bound in the absence of any competing ligands minus the non-specific binding. […]
# [3] = target: T3, GluA1 (Rattus norvegicus, UniProt P19490); assay: [3H]-AMPA radioligand binding, membranes of HEK293-T/17 cells expressing GluA1; settings: 100 μM; 20 nM [3H]-AMPA; 1 h at 4° C.
# T3 construct: expressed in transfected cells; host or cells: HEK293-T/17 (CRL-11268)
# T3 sequence (P19490 19-907 isoform P19490-2 limits assumed): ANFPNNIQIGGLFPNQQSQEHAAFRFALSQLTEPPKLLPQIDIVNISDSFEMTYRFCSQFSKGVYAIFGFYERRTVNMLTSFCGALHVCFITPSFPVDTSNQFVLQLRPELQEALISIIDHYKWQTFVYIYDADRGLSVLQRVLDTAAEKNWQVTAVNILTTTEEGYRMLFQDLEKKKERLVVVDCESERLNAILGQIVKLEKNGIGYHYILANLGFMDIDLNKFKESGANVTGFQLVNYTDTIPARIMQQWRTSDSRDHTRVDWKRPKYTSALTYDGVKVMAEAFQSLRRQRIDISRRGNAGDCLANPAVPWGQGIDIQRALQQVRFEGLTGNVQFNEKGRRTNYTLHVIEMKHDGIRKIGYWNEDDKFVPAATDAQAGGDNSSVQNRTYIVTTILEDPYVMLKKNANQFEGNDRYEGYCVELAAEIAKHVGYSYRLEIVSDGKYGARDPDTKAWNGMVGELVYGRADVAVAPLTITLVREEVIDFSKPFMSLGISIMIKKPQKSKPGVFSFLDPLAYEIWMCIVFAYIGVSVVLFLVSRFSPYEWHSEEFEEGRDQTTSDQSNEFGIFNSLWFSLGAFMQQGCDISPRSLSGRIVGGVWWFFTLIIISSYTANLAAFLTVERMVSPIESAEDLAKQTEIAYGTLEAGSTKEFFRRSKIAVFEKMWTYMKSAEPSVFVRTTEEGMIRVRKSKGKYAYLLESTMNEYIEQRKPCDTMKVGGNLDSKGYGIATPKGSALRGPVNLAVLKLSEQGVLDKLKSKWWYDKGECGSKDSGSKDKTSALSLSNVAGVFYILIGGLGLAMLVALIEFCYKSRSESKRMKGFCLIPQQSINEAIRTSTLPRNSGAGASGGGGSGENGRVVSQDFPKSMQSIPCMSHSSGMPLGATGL
# Experimental: as §1
# [4] = target: T4, kainate receptor EPSCs, CA3 pyramidal neurons (Mus musculus, UniProt P39087+Q61626+Q8BMF5); assay: Kainate receptor EPSCs at mossy fiber-CA3 synapses, acute hippocampal slices; format: cell-based; settings: 20 μM
# T4 construct: whole-cell voltage clamp recording from mouse acute brain slices; from tissue; host or cells: acute hippocampal slices, P15-21 C57Bl/6 mice, CA3 pyramidal neurons
# T4 sequence (P39087 32-908): as the sequence (P42260 32-908) above, with A377S counted along it
# T4 sequence (Q8BMF5 21-956): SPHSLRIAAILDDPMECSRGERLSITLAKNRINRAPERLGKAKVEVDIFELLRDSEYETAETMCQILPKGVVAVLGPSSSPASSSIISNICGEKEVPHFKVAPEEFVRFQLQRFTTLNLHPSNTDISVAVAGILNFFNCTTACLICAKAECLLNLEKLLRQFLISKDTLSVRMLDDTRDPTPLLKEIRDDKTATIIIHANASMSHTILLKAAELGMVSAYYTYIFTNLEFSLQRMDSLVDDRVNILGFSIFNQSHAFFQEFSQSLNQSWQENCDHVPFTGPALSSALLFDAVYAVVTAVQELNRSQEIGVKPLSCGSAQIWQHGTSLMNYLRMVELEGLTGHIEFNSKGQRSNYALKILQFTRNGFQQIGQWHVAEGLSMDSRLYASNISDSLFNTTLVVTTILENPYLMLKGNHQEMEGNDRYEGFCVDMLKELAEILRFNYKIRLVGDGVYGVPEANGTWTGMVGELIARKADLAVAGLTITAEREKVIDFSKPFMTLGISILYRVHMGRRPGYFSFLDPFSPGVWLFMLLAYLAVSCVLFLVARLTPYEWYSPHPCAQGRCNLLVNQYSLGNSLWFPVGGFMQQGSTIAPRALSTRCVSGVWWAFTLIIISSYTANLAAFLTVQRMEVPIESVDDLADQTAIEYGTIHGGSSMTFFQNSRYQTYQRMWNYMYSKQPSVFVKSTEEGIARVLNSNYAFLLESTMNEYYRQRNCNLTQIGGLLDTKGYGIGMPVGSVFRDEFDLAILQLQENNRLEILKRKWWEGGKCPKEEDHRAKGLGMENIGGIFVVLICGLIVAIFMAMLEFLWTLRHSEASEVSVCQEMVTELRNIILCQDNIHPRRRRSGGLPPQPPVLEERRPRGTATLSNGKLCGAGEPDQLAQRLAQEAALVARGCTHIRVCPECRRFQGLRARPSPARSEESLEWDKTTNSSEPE
# T4 sequence (Q61626 15-979): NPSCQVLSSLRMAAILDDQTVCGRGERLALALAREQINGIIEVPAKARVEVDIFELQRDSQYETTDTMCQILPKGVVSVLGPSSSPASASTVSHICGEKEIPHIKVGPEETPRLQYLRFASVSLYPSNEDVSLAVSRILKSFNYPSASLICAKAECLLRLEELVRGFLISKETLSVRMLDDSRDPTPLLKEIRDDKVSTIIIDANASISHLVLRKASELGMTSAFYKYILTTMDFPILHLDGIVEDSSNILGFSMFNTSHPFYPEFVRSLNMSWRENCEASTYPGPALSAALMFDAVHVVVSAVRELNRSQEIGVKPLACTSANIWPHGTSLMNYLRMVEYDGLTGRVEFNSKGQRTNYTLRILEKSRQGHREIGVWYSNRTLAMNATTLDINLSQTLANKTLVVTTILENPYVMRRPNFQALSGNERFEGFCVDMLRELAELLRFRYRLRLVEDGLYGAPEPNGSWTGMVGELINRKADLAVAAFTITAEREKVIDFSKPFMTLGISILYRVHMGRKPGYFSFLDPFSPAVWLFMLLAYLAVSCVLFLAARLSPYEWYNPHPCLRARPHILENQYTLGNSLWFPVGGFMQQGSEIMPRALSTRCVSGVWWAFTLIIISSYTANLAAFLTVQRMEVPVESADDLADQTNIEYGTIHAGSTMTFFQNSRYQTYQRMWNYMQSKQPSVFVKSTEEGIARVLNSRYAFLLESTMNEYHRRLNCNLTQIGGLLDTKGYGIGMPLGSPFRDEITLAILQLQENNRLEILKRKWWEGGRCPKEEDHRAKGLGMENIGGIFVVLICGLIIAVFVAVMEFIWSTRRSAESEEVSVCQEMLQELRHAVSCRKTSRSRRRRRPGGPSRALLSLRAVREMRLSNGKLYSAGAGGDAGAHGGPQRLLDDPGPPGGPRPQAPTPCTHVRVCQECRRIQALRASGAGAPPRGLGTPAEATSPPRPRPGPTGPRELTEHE
# Experimental: For recordings from acute hippocampal slices, brains from P15-21 C57Bl/6 mice were sliced transversely (350 μm thickness) in a sucrose slicing solution containing (in mM) 85 NACl, 2.5 KCl, 1.25 NaH2PO4, 25 NaHCO3, 25 glucose, 75 sucrose, 0.5 CaCl2, 4 MgCl2, 0.5 Na ascorbate, 10 μM DL-APV and 100 μM kynurenic acid (pH 7.3). After slicing, the solution was exchanged with an incubation solution containing (in mM) 125 NaCl, 2.4 KCl, 1.2 NaH2PO4, 25 NaHCO3, 25 glucose: 1 CaCl2, 2 MgCl2, 0.5 Na ascorbate, 10 μM DL-APV and 100 μM kynurenic acid (pH 7.3) that was bubbled continuously with CO2-balanced O2 (carbogen). […] Recordings in voltage clamp mode used the CsF/CsCl internal solution and carbogenated external recording solution containing (in mM) 120 NaCl, 2.4 KCl, 2 MgCl2, 1 CaCl2, 25 NaHCO3, 1.2 NaH2PO4, 25 glucose, 10 μM bicuculline methiodide, 50 μM PTX and 50 μM D-APV (pH 7.3). […] NMDA EPSCs were validated by addition of D-APV (50 μM) at the end of each recording. […] IKM compounds were applied for 10 minutes and changes in the peak amplitudes of excitatory post-synaptic currents (EPSCs) and paired-pulse ratios were analyzed during the last two minutes of drug application. EPSC charge transfer, AP frequency, paired-pulse ratio and EPSC peak amplitude were analyzed with Mini-Analysis v6.03 (Synaptosoft, Decatur, Ga.) and Clampfit v10.0 (MDS, Sunnyvale, Calif.) software.
# [5] = target: T5, GluK1-2b (Rattus norvegicus, UniProt P22756); assay: [3H]-KA radioligand binding, membranes of HEK293-T/17 cells expressing GluK1-2b; settings: 10 nM [3H]-KA, 1 h at 4° C., read-out: [3H]KA bound as percent of total (specific) binding in absence of competing ligand
# T5 construct: myc; expressed in transfected cells; host or cells: HEK293-T/17 (CRL-11268)
# Experimental: as §1
smiles,measurement,setting,value
O=C(O)C[C@@]12O[C@H]3C=CCN[C@H]3C1CN[C@H]2C(=O)O (stereo partly drawn) [IKM-159],GluA3 peak amplitude as percent of basal peak amplitude,[1],83±2%
same,reduction in GluA3 peak current amplitude,[1],17±2%
same,activity at 100 µM,[2],98 ± 4%
same,[3H]AMPA bound as percent of total (specific) binding in absence of competing ligand,[3],135±23% and 134±23%
same,effect on kainate receptor EPSC peak amplitude,[4],did not alter the mean amplitude; also recorded: did not alter the typical run-down in amplitude
same,activity at 100 µM,[5],105 ± 5%
